{"source": "patent US20100190824A1", "about": "“Novel Substituted Piperidones as HSP Inducers” (priority 2007, published 2010)", "key": {"injured motoneurones": {"test_system": "injured motoneurones", "conditions": "cited from earlier work"}, "male Sprague Dawley rats": {"test_system": "male Sprague Dawley rats", "assay": "Neuroprotective activity, transient cerebral ischemia (intraluminal suture occlusion)", "format": "in vivo, rat", "description": "Transient cerebral ischemia (for 2 hit) was induced in male Sprague Dawley rats of 240-270 g body weight under halothane anaesthesia by the intraluminal suture occlusion technique—inserting a 3-0 polyamide suture from proximal external carotid artery into the lumen of internal carotid artery (Longa E Z. et al. Stroke 20: 84-91; 1989). During the entire surgical procedure for the induction of stroke, the body temperature of the animal was maintained at 37° C., using a homoeothermic blanket. At the end of 2 hrs the suture was removed for reperfusion. The test compound was administered to animals at 8th hour post initiation of occlusion and subsequently at specified interval. At the end of 7 days all the animals were sacrificed and infarct was characterized after staining with triphenyl tetrazolium chloride (TTC). The images of the stained slices were captured using a scanner and was analyzed for infarct size and edema using Scion image software. Neurological scores were obtained at different time points after surgical recovery and improvement was assessed after reperfusion by calculating the percentage change from baseline scores (scores during ischemia)."}, "TNF-α mRNA": {"test_system": "TNF-α mRNA", "assay": "Inhibition of LPS-induced TNF-α expression in PMA differentiated THP-1 cells", "format": "cell-based, Human", "conditions": "LPS (1 ug/ml) and compound for 4 hours, LPS alone as 100%", "description": "The purpose of the present study was to determine the inhibition of lipopolysaccharide(LPS)-induced TNF-α expression in phorbol merstyl ester (PMA) differentiated THP-1 cells.\nHuman monocytic leukaemia cell line (THP-1), differentiated into macrophage-like cells by PMA treatment was employed. Differentiated cells were treated with either LPS (1 ug/ml) alone or with LPS (1 ug/ml) and compound for 4 hours. Total RNA was isolated and expression of TNF-αmRNA along-with expression of 18S rRNA was monitored by real-time PCR. TNF-α mRNA expression was normalized relative to the expression of 18S rRNA Considering TNF-α expression for cells treated with LPS alone as 100%; the results for test compounds were expressed as % inhibition of TNF-α expression and are as shown in Table 4"}, "HSP70b mRNA": {"test_system": "HSP70b mRNA", "assay": "Cellular expression of HSP-70 mRNA in primary mixed neurons (real-time PCR)", "format": "cell-based", "conditions": "fold induction of HSP70b mRNA relative to vehicle treated control; primary mixed neurons from neonatal rat cerebellum; 4 hours; normalized to 18S rRNA", "description": "Experiments set forth in this section were conducted to determine whether the compounds of the present invention are able to elevate the expression of HSP-70 gene in cells.\nHela cell-line or primary mixed neurons derived from neonatal rat cerebellum were employed. Induction was carried out for the indicated dose(s) for 4 hours duration and total RNA was isolated. Expression of HSP70b mRNA along-with expression of 18S rRNA was monitored by real-time PCR. HSP70b mRNA expression was normalized relative to the expression of 18S rRNA.\nThe results for test compounds were expressed as fold induction of HSP-70 mRNA relative to vehicle treated control and are as shown in Table 2 & 3."}, "[1]": {"test_system": "rat orthotopic liver transplantation model", "conditions": "donors treated; with vehicle all recipients died; cited from earlier work"}, "[2]": {"test_system": "streptozotocin-induced neuropathy", "conditions": "cited from earlier work"}, "[3]": {"test_system": "permeability of blood brain barrier", "conditions": "vascular insult evoked by sub-arachnoidal autologous blood; cited from earlier work"}}}
{"compound": "[O-][n+]1cccc(/C(Cl)=N/OC[C@H](O)CN2CCCCC2)c1", "note": "[BRX-220]", "values": [{"measurement": "motoneurones survived", "setting": "injured motoneurones; 14 days after injury, 21% in vehicle group", "result": 39, "unit": "%"}, {"measurement": "motoneurons survived", "setting": "injured motoneurones; at 10 weeks, 15% in untreated group", "result": 42, "unit": "%"}]}
{"compound": "COc1ccc(CC2N(C(=O)Nc3c(C(C)C)cccc3C(C)C)CC(=Cc3ccccn3)C(=O)C2(C)C)cc1", "note": "(stereo not shown) [Compound 68, 2-(4-Methoxy-benzyl)-3,3-dimethyl-4-oxo-5-[1-pyridin-2-yl-methylidene]-piperidine-1-carboxylic acid (2,6-diisopropyl-phenyl)-amide]", "values": [{"measurement": "% reduction Edema", "setting": "male Sprague Dawley rats; i.p. 15.2 mg/kg, multiple dose, from 8th hour post initiation of occlusion, 2 h ischemia, sacrificed at 7 days", "result": 51.0, "unit": "%"}, {"measurement": "% reduction Infarct", "setting": "male Sprague Dawley rats; i.p. 15.2 mg/kg, multiple dose, from 8th hour post initiation of occlusion, 2 h ischemia, sacrificed at 7 days, TTC staining", "result": 30.0, "unit": "%"}, {"measurement": "% improvement Mean Neurological Score", "setting": "male Sprague Dawley rats; i.p. 15.2 mg/kg, multiple dose, percentage change from baseline scores (scores during ischemia)", "result": 61.1, "unit": "%"}, {"measurement": "neuroprotective activity in an animal model of cerebral ischemia", "setting": "male Sprague Dawley rats; result in words", "result": "reduced infarct size and brain edema with improvement in neurological deficit"}, {"measurement": "TNF-alpha Inhibition", "setting": "TNF-α mRNA", "result": "(++++) (>80%)"}, {"measurement": "HSP Induction in mixed neuron", "setting": "HSP70b mRNA", "result": "(++++) (>16 fold)"}]}
{"compound": "CC(=O)CCC=C(C)CC/C=C(\\C)CC/C=C(\\C)CCC=C(C)C", "note": "(mixture of isomers) [Geranylgeranyl acetone]", "values": [{"measurement": "7-day survival of the recipients", "setting": "[1]", "result": "~90", "unit": "%"}]}
{"compound": "OC(CO/N=C(\\Cl)c1cccnc1)CN1CCCCC1", "note": "(stereo not shown) [Bimoclomol]", "values": [{"measurement": "reduction of nerve conduction slowing, motor", "setting": "[2]", "result": 38, "unit": "%"}, {"measurement": "reduction of nerve conduction slowing, sensory", "setting": "[2]", "result": 42, "unit": "%"}, {"measurement": "retardation of elevated ischemic resistance", "setting": "[2]", "result": 71, "unit": "%"}, {"measurement": "reduction of size of cerebral tissue stained with Evans blue leakage", "setting": "[3]", "result": 39, "unit": "%"}]}
